Experimental data as given in patent US12606557B2, “Substituted indoles with inhibitory activity” (UNIVERSITY OF PITTSBURGH—OF THE COMMONWEALTH SYSTEM OF …, priority 2020, dated 2026).
Values joined by “and” are separate entries in the source; they are usually repeats but may differ in a detail not shown here. Equal entries are not always repeated. Where two headings read alike, the source gives them in different places. Marks after values point to notes of the source that are not given here.

What was measured:
[1] = Plasma pharmacokinetics after a single intraperitoneal dose; format: in vivo, male CD1 mice; conditions: for plasma concentrations quantifiable up to: LLOQ 10.38 ng/mL; for concentration at 0.08 hr / concentration at 0.25 hr / concentration at 0.5 hr / concentration at 1 hr / concentration at 2 hr / concentration at 4 hr / concentration at 8 hr / concentration at 24 hr: intraperitoneal
Protocol: The objective of this example was to investigate the plasma pharmacokinetics of UPHH-000171 following a single intraperitoneal dose administration to male CD1 mice at 10 and 50 mg/kg. Eighteen male mice were divided in to two groups with nine animals in each group,
Animals in Group 1 and Group 2 were administered with solution formulation of UPHH-000171 in 5% NMP, 25% Solutol HS-15 and 70% normal saline intraperitoneally at 10 and 50 mg/kg dose, respectively.
The blood samples were collected from set of three mice at each time point in labeled micro centrifuge tube containing K2EDTA solution as anticoagulant at Pre-dose, 0.08, 0.25, 0.5, 1, 2, 4, 8 and 24 hr. Plasma samples were separated by centrifugation of whole blood and stored below −70±10° C. until bioanalysis. All samples were processed for analysis by protein precipitation using acetonitrile and analyzed with fit-for-purpose LC-MS/MS method (LLOQ=10.38 ng/mL). Pharmacokinetic parameters were calculated using the non-compartmental analysis tool of Phoenix WinNonlin® (Version 7.0). Mean pharmacokinetic parameters are summarized below: […]

[2] = target: T1, HDAC8 (Homo sapiens, UniProt Q9BY41); test: Cellular thermal shift assay (CETSA) for HDAC8 binding; conditions: compared to a control with no compound, FIG. 1
T1 construct: CETSA uses cell lysates heated to different temperatures and quantifies the target protein in the soluble fraction by western blot; endogenous in cells; host or cells: cell lysate
T1 sequence (Q9BY41 1-377): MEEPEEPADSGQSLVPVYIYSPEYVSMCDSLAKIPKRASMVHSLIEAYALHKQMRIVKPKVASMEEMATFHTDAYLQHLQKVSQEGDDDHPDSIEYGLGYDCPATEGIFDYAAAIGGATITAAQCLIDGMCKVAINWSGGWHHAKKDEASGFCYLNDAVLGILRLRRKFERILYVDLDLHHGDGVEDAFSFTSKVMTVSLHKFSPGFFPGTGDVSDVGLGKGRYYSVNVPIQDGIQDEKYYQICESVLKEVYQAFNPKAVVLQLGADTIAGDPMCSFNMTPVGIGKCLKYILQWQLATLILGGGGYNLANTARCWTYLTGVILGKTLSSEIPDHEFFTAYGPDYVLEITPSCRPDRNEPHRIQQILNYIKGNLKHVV
Excerpt: Cellular thermal shift assay (CETSA) was developed from the same principles of ligand induced thermal stability assays (TSA) of proteins. During TSA, purified proteins are heated in the absence or presence of ligand and then quickly cooled. Proteins that are bound to ligand are more thermally stable than their unbound counterparts, and these “thermal shifts” can be detected by various methods. CETSA uses cell lysates heated to different temperatures and quantifies the target protein in the soluble fraction by western blot. CETSA is a direct measurement of […] through the measurement of the biophysical properties that stabilized the protein-ligand complex under thermal denaturation. The UPHH-00171 compound was tested in the CETSA assay, specifically for HDAC8 binding.

[3] = system: gentamicin-induced AKI in zebrafish larvae; test: Gentamicin-induced AKI in zebrafish larvae (zfAKI assay), Kaplan-Meier survival; format: in vivo; conditions: two different doses, compared to the untreated control
Excerpt: The gentamicin-induced AKI in zebrafish larvae (zfAKI assay), recapitulates injury and proliferation-based repair in mammalian AKI, but allows for higher throughput analysis of compound efficacy in AKI than mouse models. As fish are soaked in compounds, this assay is not subject to drug delivery and absorption problems that occur in early drug discovery in mice. This assay was used as a primary screening assay with the throughput being increased.

[4] = male, CD1, mouse, 10 mg/kg IP, plasma
[5] = male, CD1, mouse, 50 mg/kg IP, plasma

With `COc1ccc(Cn2ccc3ccc(C(=O)NS(C)(=O)=O)cc32)cc1` [UPHH-000171, 1-(4-methoxybenzyl)-N-(methylsulfonyl)-1H-indole-6-carboxamide] as the compound, how does the “Plasma Concentration, individual animal” value ([1]; 10 mg/kg IP, 0.08 hr) read?
The value was 9871.25 ng/mL and 2877.79 ng/mL and 7508.44 ng/mL.

And the “Plasma Concentration, individual animal” value ([1]; 10 mg/kg IP, 0.25 hr)?
Its value is 28861.97 ng/mL and 28672.95 ng/mL.

What about the “Plasma Concentration, individual animal” value ([1]; 10 mg/kg IP, 0.5 hr) of the same compound?
Its value is 41628.22 ng/mL and 36468.73 ng/mL.

And the “Plasma Concentration, individual animal” value ([1]; 10 mg/kg IP, 1 hr)?
Its value is 49594.52 ng/mL and 19264.72 ng/mL and 34912.30 ng/mL.

And the “Plasma Concentration, individual animal” value ([1]; 10 mg/kg IP, 2 hr)?
Its value is 46853.15 ng/mL and 43408.40 ng/mL.

What about the “Plasma Concentration, individual animal” value ([1]; 10 mg/kg IP, 4 hr) of the same compound?
The value was 47512.89 ng/mL and 73497.85 ng/mL and 31815.34 ng/mL.

And the “Plasma Concentration, individual animal” value ([1]; 10 mg/kg IP, 8 hr)?
The value was 20138.85 ng/mL and 29805.54 ng/mL.

And the “Plasma Concentration, individual animal” value ([1]; 10 mg/kg IP, 24 hr, animal 7 excluded as an outlier)?
The value was 2930.59^e ng/mL and 131.01 ng/mL and 68.44 ng/mL.

And the “plasma concentrations quantifiable up to” value ([1]; 10 mg/kg IP)?
The value was “up to 24 hr”.

What about the “Plasma Concentration, individual animal” value ([1]; 50 mg/kg IP, 0.08 hr) of the same compound?
Its value is 59305.08 ng/mL and 90638.28 ng/mL.

And the “Plasma Concentration, individual animal” value ([1]; 50 mg/kg IP, 0.25 hr)?
Its value is 31701.46 ng/mL and 171000.65 ng/mL and 182938.71 ng/mL.

And the “Plasma Concentration, individual animal” value ([1]; 50 mg/kg IP, 0.5 hr)?
Its value is 137922.52 ng/mL and 96505.03 ng/mL and 47522.98 ng/mL.

What about the “Plasma Concentration, individual animal” value ([1]; 50 mg/kg IP, 1 hr) of the same compound?
The value was 218799.23 ng/mL and 236020.35 ng/mL.

And the “Plasma Concentration, individual animal” value ([1]; 50 mg/kg IP, 2 hr)?
Its value is 93162.33 ng/mL and 195094.83 ng/mL and 235858.27 ng/mL.

What about the “Plasma Concentration, individual animal” value ([1]; 50 mg/kg IP, 4 hr) of the same compound?
The value was 106201.99 ng/mL and 115510.21 ng/mL.

And the “Plasma Concentration, individual animal” value ([1]; 50 mg/kg IP, 8 hr)?
The value was 93195.14 ng/mL and 75070.05 ng/mL.

What about the “Plasma Concentration, individual animal” value ([1]; 50 mg/kg IP, 24 hr) of the same compound?
Its value is 1407.79 ng/mL and 391.49 ng/mL and 1081.42 ng/mL.

What about the “plasma concentrations quantifiable up to” value ([1]; 50 mg/kg IP) of the same compound?
The value was “up to 24 hr”.

What about the “dose related increase in plasma exposure (AUClast)” value ([1]; from 10 mg/kg to 50 mg/kg IP) of the same compound?
The value was 3 fold.

What about the concentration at 0.08 hr ([1]; male, CD1, mouse, plasma, 10 mg/kg, 10 mg/kg IP, 0.08 hr, read-out: Plasma Concentration, Mean) of the same compound?
Its concentration at 0.08 hr is 6.75 µg/mL.

And the concentration at 0.25 hr ([1]; male, CD1, mouse, plasma, 10 mg/kg, 10 mg/kg IP, 0.25 hr, read-out: Plasma Concentration, Mean)?
The concentration at 0.25 hr was 30200 ng/mL.

What about the concentration at 0.25 hr ([1]; male, CD1, mouse, plasma, 10 mg/kg, 10 mg/kg IP, 0.25 hr, read-out: Plasma Concentration, individual animal) of the same compound?
The concentration at 0.25 hr was 33000 ng/mL.

And the concentration at 0.5 hr ([1]; male, CD1, mouse, plasma, 10 mg/kg, 10 mg/kg IP, 0.5 hr, read-out: Plasma Concentration, Mean)?
Its concentration at 0.5 hr is 41200 ng/mL.

And the concentration at 0.5 hr ([1]; male, CD1, mouse, plasma, 10 mg/kg, 10 mg/kg IP, 0.5 hr, read-out: Plasma Concentration, individual animal)?
The concentration at 0.5 hr was 45600 ng/mL.

What about the concentration at 1 hr ([1]; male, CD1, mouse, plasma, 10 mg/kg, 10 mg/kg IP, 1 hr, read-out: Plasma Concentration, Mean) of the same compound?
Its concentration at 1 hr is 34.6 µg/mL.

What about the concentration at 2 hr ([1]; male, CD1, mouse, plasma, 10 mg/kg, 10 mg/kg IP, 2 hr, read-out: Plasma Concentration, Mean) of the same compound?
Its concentration at 2 hr is 47.9 µg/mL.

And the concentration at 2 hr ([1]; male, CD1, mouse, plasma, 10 mg/kg, 10 mg/kg IP, 2 hr, read-out: Plasma Concentration, individual animal)?
The concentration at 2 hr was 53.6 µg/mL.

And the concentration at 4 hr ([1]; male, CD1, mouse, plasma, 10 mg/kg, 10 mg/kg IP, 4 hr, read-out: Plasma Concentration, Mean)?
The concentration at 4 hr was 50.9 µg/mL.

And the concentration at 8 hr ([1]; male, CD1, mouse, plasma, 10 mg/kg, 10 mg/kg IP, 8 hr, read-out: Plasma Concentration, Mean)?
Its concentration at 8 hr is 28.4 µg/mL.

And the concentration at 8 hr ([1]; male, CD1, mouse, plasma, 10 mg/kg, 10 mg/kg IP, 8 hr, read-out: Plasma Concentration, individual animal)?
Its concentration at 8 hr is 35.1 µg/mL.

What about the concentration at 24 hr ([1]; male, CD1, mouse, plasma, 10 mg/kg, 10 mg/kg IP, 24 hr, average of two values) of the same compound?
The concentration at 24 hr was 99.7 ng/mL.

What about the concentration at 0.08 hr ([1]; male, CD1, mouse, plasma, 50 mg/kg, 50 mg/kg IP, 0.08 hr, read-out: Plasma Concentration, Mean) of the same compound?
Its concentration at 0.08 hr is 79.6 µg/mL.

What about the concentration at 0.08 hr ([1]; male, CD1, mouse, plasma, 50 mg/kg, 50 mg/kg IP, 0.08 hr, read-out: Plasma Concentration, individual animal) of the same compound?
Its concentration at 0.08 hr is 89 µg/mL.

And the concentration at 0.25 hr ([1]; male, CD1, mouse, plasma, 50 mg/kg, 50 mg/kg IP, 0.25 hr, read-out: Plasma Concentration, Mean)?
Its concentration at 0.25 hr is 129000 ng/mL.

And the concentration at 0.5 hr ([1]; male, CD1, mouse, plasma, 50 mg/kg, 50 mg/kg IP, 0.5 hr, read-out: Plasma Concentration, Mean)?
The concentration at 0.5 hr was 94000 ng/mL.

And the concentration at 1 hr ([1]; male, CD1, mouse, plasma, 50 mg/kg, 50 mg/kg IP, 1 hr, read-out: Plasma Concentration, Mean)?
The concentration at 1 hr was 228 µg/mL.

What about the concentration at 1 hr ([1]; male, CD1, mouse, plasma, 50 mg/kg, 50 mg/kg IP, 1 hr, read-out: Plasma Concentration, individual animal) of the same compound?
The concentration at 1 hr was 229 µg/mL.

And the concentration at 2 hr ([1]; male, CD1, mouse, plasma, 50 mg/kg, 50 mg/kg IP, 2 hr, read-out: Plasma Concentration, Mean)?
Its concentration at 2 hr is 175 µg/mL.

And the concentration at 4 hr ([1]; male, CD1, mouse, plasma, 50 mg/kg, 50 mg/kg IP, 4 hr, read-out: Plasma Concentration, Mean)?
The concentration at 4 hr was 116 µg/mL.

What about the concentration at 4 hr ([1]; male, CD1, mouse, plasma, 50 mg/kg, 50 mg/kg IP, 4 hr, read-out: Plasma Concentration, individual animal) of the same compound?
Its concentration at 4 hr is 128 µg/mL.

What about the concentration at 8 hr ([1]; male, CD1, mouse, plasma, 50 mg/kg, 50 mg/kg IP, 8 hr, read-out: Plasma Concentration, Mean) of the same compound?
The concentration at 8 hr was 90.1 µg/mL.

What about the concentration at 8 hr ([1]; male, CD1, mouse, plasma, 50 mg/kg, 50 mg/kg IP, 8 hr, read-out: Plasma Concentration, individual animal) of the same compound?
Its concentration at 8 hr is 102 µg/mL.

And the concentration at 24 hr ([1]; male, CD1, mouse, plasma, 50 mg/kg, 50 mg/kg IP, 24 hr)?
The concentration at 24 hr was 960 ng/mL.

And the AUC(0-t) [1, 4]?
The AUC(0-t) was 558 µg·h/mL.

And the Cmax [1, 4]?
Its Cmax is 50.9 µg/mL.

And the Tmax [1, 4]?
Its Tmax is 4 h.

What about the AUC(0-inf) [1, 5] of the same compound?
The AUC(0-inf) was 1770 µg·h/mL.

And the AUC(0-t) [1, 5]?
The AUC(0-t) was 1760 µg·h/mL.

What about the Cmax [1, 5] of the same compound?
Its Cmax is 228 µg/mL.

And the Tmax [1, 5]?
Its Tmax is 1 h.

And the “thermal stability of HDAC8 in CETSA” value ([2]; listed as UPHH171)?
The value was “increased thermal stability”.

And the “thermal stability of HDAC8 in CETSA” value ([2]; listed as UPHH-00171)?
Its value is “increase in thermal stability”.

What about the “survival in zfAKI assay” value [3] of the same compound?
Its value is “increase survival”.
